From US9096596B2 (Janssen Pharmaceutica NV, priority 2013, dated 2015)
pIC50, pKi: −log10 of the molar value. Read-outs that look alike come from different tables or passages of the source.

Tests used:
rat P2X7 = rat P2X7 (Rattus norvegicus (Rat), UniProt Q64663); experiment: Ca2+ flux (FLIPR) in 1321N1 cells expressing recombinant rat P2X7 channel; assay type: cell-based; conditions: 250 μM BzATP, Calcium-4 dye
Protocol: (§1) 1321N1 cells expressing the recombinant human, rat or mouse P2X7 channel was cultured in HyQ DME/(HyClone/Dulbecco's Modified Eagle Medium) high glucose supplemented with 10% Fetal Bovine Serum (FBS) and appropriate selection marker. Cells were seeded at a density of 25000 cells/well (96-well clear bottom black walled plates) in 100 μl volume/well. On the day of the experiment, cell plates were washed with assay buffer, containing (in mM): 130 NaCl, 2 KCl, 1 CaCl2, 1 MgCl2, 10 HEPES, 5 glucose; pH 7.40 and 300 mOs. After the wash, cells were loaded with the Calcium-4 dye (Molecular Device) and incubated in the dark for 60 minutes. Test compounds were prepared at 250× the test concentration in neat DMSO. Intermediate 96-well compound plates were prepared by transferring 1.2 μL of the compound into 300 μL of assay buffer. A further 3× dilution occurred when transferring 50 μL/well of the compound plate to 100 μL/well in the cell plate. Cells were incubated with test compounds and dye for 30 minutes. […] The fluorescence change was measured 180 seconds after adding the agonist.

P2X7 [1] = target: T1, P2X7 (Homo sapiens (Human), UniProt Q99572); experiment: Ca2+ flux (FLIPR) in 1321N1 cells expressing recombinant human P2X7 channel; assay type: cell-based; conditions: 250 μM BzATP, Calcium-4 dye
Protocol: as §1

P2X7 [2] = target: T1, P2X7; experiment: P2X7 antagonism in human PBMCs (IL-1β release, ELISA); assay type: cell-based; conditions: test compound 10 μM, IL-1β release in human PBMCs, LPS 30 ng/ml + Bz-ATP 0.5 mM, read-out: PBMC 10 μM (% control)
Protocol: Human blood was collected using a blood donor program. […] Cells were incubated for an additional 1.5 hours. […] In Table 2, when the data cell has been left blank, it is intended to mean that the compound was not tested in that assay.

P2X7 [3] = target: T1, P2X7; experiment: Radioligand binding, human P2X7-1321N1 cell membranes, tracer tritiated A-804598
Protocol: On the day of the experiment, cell membrane preparations were made according to standard published methods. […] The compound can be prepared as described in the literature. […] The assay was terminated by filtration (GF/B filters pre-soaked with 0.3% PEI) and washed with washing buffer (Tris-HCl 50 mM). The IC50 generated in the binding assay was corrected for tracer concentration and affinity of the tracer to derive at the affinity (Ki) of the test compounds.

[4] = human P2X7-1321N1 membranes, 1 hour at 4° C., IC50 corrected for tracer concentration and affinity

rat P2X7, sequence (Q64663 whole entry): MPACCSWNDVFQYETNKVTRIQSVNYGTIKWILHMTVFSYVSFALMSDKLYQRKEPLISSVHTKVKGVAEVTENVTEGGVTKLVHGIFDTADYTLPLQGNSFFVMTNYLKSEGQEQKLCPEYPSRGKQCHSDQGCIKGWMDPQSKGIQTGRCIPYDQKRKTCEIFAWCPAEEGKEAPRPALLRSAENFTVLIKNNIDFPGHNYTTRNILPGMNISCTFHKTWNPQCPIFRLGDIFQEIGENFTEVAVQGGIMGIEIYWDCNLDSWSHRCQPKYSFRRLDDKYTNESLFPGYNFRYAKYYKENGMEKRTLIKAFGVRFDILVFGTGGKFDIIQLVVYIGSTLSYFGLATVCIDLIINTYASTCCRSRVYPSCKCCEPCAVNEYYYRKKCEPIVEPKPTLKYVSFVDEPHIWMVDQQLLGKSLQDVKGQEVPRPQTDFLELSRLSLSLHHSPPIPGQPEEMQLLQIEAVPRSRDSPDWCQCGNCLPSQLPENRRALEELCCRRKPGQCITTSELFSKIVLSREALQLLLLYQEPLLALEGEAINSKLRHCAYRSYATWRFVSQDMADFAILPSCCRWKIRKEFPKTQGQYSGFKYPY
T1 sequence (Q99572 whole entry): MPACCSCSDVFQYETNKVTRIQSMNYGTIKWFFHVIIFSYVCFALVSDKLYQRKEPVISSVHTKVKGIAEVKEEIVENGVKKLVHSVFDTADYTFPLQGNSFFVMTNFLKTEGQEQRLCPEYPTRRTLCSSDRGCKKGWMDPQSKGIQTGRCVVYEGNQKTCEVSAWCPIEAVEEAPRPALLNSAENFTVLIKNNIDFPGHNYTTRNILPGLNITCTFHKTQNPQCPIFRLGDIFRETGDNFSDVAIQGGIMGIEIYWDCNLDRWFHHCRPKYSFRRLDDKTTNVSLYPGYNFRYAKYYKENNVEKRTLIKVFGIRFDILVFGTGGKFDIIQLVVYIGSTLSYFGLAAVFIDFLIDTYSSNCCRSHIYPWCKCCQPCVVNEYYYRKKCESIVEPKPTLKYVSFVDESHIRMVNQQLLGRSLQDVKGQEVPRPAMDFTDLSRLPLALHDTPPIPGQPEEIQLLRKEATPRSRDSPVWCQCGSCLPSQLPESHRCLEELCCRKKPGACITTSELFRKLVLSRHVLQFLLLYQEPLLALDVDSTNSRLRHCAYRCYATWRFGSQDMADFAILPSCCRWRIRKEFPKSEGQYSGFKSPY

SMILES | pIC50 (rat P2X7) | pIC50 (P2X7 [1]) | remaining activity at 10 µM (P2X7 [2]) [%] | pKi (P2X7 [3]; [4]) | pKi (P2X7 [3])
O=C(c1cc(F)c(F)cc1Cl)N1CCc2c(ncnc2-c2cnccn2)C1 [Example 16, 7-[(2-Chloro-4,5-difluorophenyl)carbonyl]-4-pyrazin-2-yl-5,6,7,8-tetrahydropyrido[3,4-d]pyrimidine] | < 5.00 | 4.88 | 20.4 |  | 
O=C(c1ccc(F)cc1Cl)N1CCc2c(ncnc2-c2ccn[nH]2)C1 [Example 21] |  | 6.55 | -15.5 | 7.40 | 
O=C(c1cccc(C(F)(F)F)c1Cl)N1CCc2c(ncnc2-c2nccs2)C1 [Example 37, 7-{[2-Chloro-3-(trifluoromethyl)phenyl]carbonyl}-4-(1,3-thiazol-2-yl)-5,6,7,8-tetrahydropyrido[3,4-d]pyrimidine] |  | 7.92 |  | 7.30 | 
O=C(c1cccc(C(F)(F)F)c1Cl)N1CCc2c(ncnc2-c2ccc[nH]2)C1 [Example 42, 7-{[2-Chloro-3-(trifluoromethyl)phenyl]carbonyl}-4-(1H-pyrrol-2-yl)-5,6,7,8-tetrahydropyrido[3,4-d]pyrimidine] |  | 7.70 |  | 7.10 | 
O=C(c1cccc(Cl)c1Cl)N1CCc2c(ncnc2-c2nccs2)C1 [Example 38, 7-[(2,3-Dichlorophenyl)carbonyl]-4-(1,3-thiazol-2-yl)-5,6,7,8-tetrahydropyrido[3,4-d]pyrimidine] |  | 7.20 |  | 7.11 | 
Cc1nc2c(c(-c3ccccc3)n1)CCN(C(=O)c1cccc(Cl)c1Cl)C2 [Example 27, 7-[(2,3-Dichlorophenyl)carbonyl]-2-methyl-4-phenyl-5,6,7,8-tetrahydropyrido[3,4-d]pyrimidine] | 5.34 | 6.93 |  | 6.37 | 
Cc1nc2c(c(-c3ccn[nH]3)n1)CC(C)N(C(=O)c1ccc(C#N)cc1C)C2 (stereo not drawn) [Example 3, 4-(2,6-dimethyl-4-(1H-pyrazol-5-yl)-5,6,7,8-tetrahydropyrido[3,4-d]pyrimidine-7-carbonyl)-3-methylbenzonitrile] | 5.37 | 6.10 | 2.5 |  | 
O=C(c1cccc(C(F)(F)F)c1Cl)N1CCc2c(ncnc2-c2ccccc2)C1 [Example 1, 7-{[2-Chloro-3-(trifluoromethyl)phenyl]carbonyl}-4-phenyl-5,6,7,8-tetrahydropyrido[3,4-d]pyrimidine] | 5.90 | 7.52 |  | 6.65 | 
Cc1nc2c(c(-n3ccnn3)n1)CCN(C(=O)c1cccc(C(F)(F)F)c1Cl)C2 [Example 48, 7-{[2-Chloro-3-(trifluoromethyl)phenyl]carbonyl}-2-methyl-4-(1H-1,2,3-triazol-1-yl)-5,6,7,8-tetrahydropyrido[3,4-d]pyrimidine] | 5.00 | 5.30 |  | 5.70 | 
Cn1cc(-c2ncnc3c2CCN(C(=O)c2cccc(Cl)c2Cl)C3)cn1 [Example 5, 7-[(2,3-Dichlorophenyl)carbonyl]-4-(1-methyl-1H-pyrazol-4-yl)-5,6,7,8-tetrahydropyrido[3,4-d]pyrimidine] | < 5.00 | 4.89 |  |  | 
O=C(c1cccc(Cl)c1Cl)N1CCc2c(ncnc2-n2cccn2)C1 [Example 22, 7-[(2,3-Dichlorophenyl)carbonyl]-4-(1H-pyrazol-1-yl)-5,6,7,8-tetrahydropyrido[3,4-d]pyrimidine] | 4.55 | 6.70 |  |  | 
Cc1nc2c(c(-c3cscn3)n1)CCN(C(=O)c1cccc(C(F)(F)F)c1Cl)C2 [Example 44, 7-{[2-Chloro-3-(trifluoromethyl)phenyl]carbonyl}-2-methyl-4-(1,3-thiazol-4-yl)-5,6,7,8-tetrahydropyrido[3,4-d]pyrimidine] | 6.81 | 7.46 |  | 7.20 | 

Further lines, results first:

pIC50 (rat P2X7) | pIC50 (P2X7 [1]) | remaining activity at 10 µM (P2X7 [2]) [%] | pKi (P2X7 [3]; [4]) | pKi (P2X7 [3]) | SMILES
5.73 | 6.31 | -1 |  |  | Cc1nc2c(c(-c3ccn[nH]3)n1)CC(C)N(C(=O)c1cccc(C)c1F)C2 (stereo not drawn) [Example 135, (2,6-dimethyl-4-(1H-pyrazol-5-yl)-5,6-dihydropyrido[3,4-d]pyrimidin-7(8H)-yl)(2-fluoro-3-methylphenyl)methanone]
5.51 | 6.35 | -1.2 |  |  | Cc1nc2c(c(-c3ccn[nH]3)n1)CC(C)N(C(=O)c1cccc(C#N)c1C)C2 (stereo not drawn) [Example 61, 3-(2,6-dimethyl-4-(1H-pyrazol-5-yl)-5,6,7,8-tetrahydropyrido[3,4-d]pyrimidine-7-carbonyl)-2-methylbenzonitrile]
< 5.00 | 4.94 | 7.3 |  |  | Cc1ccc(C(=O)N2Cc3nc(C)nc(-c4ccn[nH]4)c3CC2C)c(C)c1 (stereo not drawn) [Example 131, (2,6-dimethyl-4-(1H-pyrazol-5-yl)-5,6-dihydropyrido[3,4-d]pyrimidin-7(8H)-yl)(2,4-dimethylphenyl)methanone]
 |  | 2.5 | 7.40 |  | O=C(c1ccc(F)c(Cl)c1Cl)N1CCc2c(ncnc2-c2cccc(F)n2)C1 [Example 129, (2,3-dichloro-4-fluorophenyl)(4-(6-fluoropyridin-2-yl)-5,6-dihydropyrido[3,4-d]pyrimidin-7(8H)-yl)methanone]
< 5.00 | < 5.00 | 20.1 |  |  | O=C(c1cccc(C(F)(F)F)c1Cl)N1CCc2c(ncnc2-n2cncn2)C1 [Example 110, (4-(1H-1,2,4-triazol-1-yl)-5,6-dihydropyrido[3,4-d]pyrimidin-7(8H)-yl)(2-chloro-3-(trifluoromethyl)phenyl)methanone]
 | 6.04 | 0.1 |  |  | Cc1nc2c(c(-c3ccn[nH]3)n1)CC(C)N(C(=O)c1ccc(F)cc1C)C2 (stereo not drawn) [Example 133, (2,6-dimethyl-4-(1H-pyrazol-5-yl)-5,6-dihydropyrido[3,4-d]pyrimidin-7(8H)-yl)(4-fluoro-2-methylphenyl)methanone]
5.72 | 7.08 |  | 7.20 |  | Cc1nc2c(c(-c3ccn[nH]3)n1)CCN(C(=O)c1ccc(Cl)c(F)c1Cl)C2 [Example 53, 7-[(2,4-Dichloro-3-fluorophenyl)carbonyl]-2-methyl-4-(1H-pyrazol-5-yl)-5,6,7,8-tetrahydropyrido[3,4-d]pyrimidine]
 | 7.18 | 10.8 | 7.10 |  | O=C(c1cccc(C(F)(F)F)c1Cl)N1CCc2c(nc(C(F)(F)F)nc2-c2ccn[nH]2)C1 [Example 60, (4-(1H-pyrazol-5-yl)-2-(trifluoromethyl)-5,6-dihydropyrido[3,4-d]pyrimidin-7(8H)-yl)(2-chloro-3-(trifluoromethyl)phenyl)methanone]
 | 7.76 |  |  | 7.94 | Cc1nc2c(c(-c3ccn[nH]3)n1)C[C@H](C)N(C(=O)c1ccc(Cl)cc1F)C2 (single isomer, unassigned) [Example 89, (S*)-(4-chloro-2-fluorophenyl)(2,6-dimethyl-4-(1H-pyrazol-5-yl)-5,6-dihydropyrido[3,4-d]pyrimidin-7(8H)-yl)methanone]
6.99 | 7.19 |  |  | 7.50 | Cc1nc2c(c(-c3ccn[nH]3)n1)C[C@H](C)N(C(=O)c1ccc(F)cc1F)C2 (single isomer, unassigned) [Example 95, (S*)-(2,4-difluorophenyl)(2,6-dimethyl-4-(1H-pyrazol-5-yl)-5,6-dihydropyrido[3,4-d]pyrimidin-7(8H)-yl)methanone]
5.90 | 6.48 | 0.4 |  |  | Cc1nc2c(c(-c3ccn[nH]3)n1)CC(C)N(C(=O)c1cccc(F)c1C)C2 (stereo not drawn) [Example 134, (2,6-dimethyl-4-(1H-pyrazol-5-yl)-5,6-dihydropyrido[3,4-d]pyrimidin-7(8H)-yl)(3-fluoro-2-methylphenyl)methanone]
 | 7.47 | 0.4 | 7.50 |  | Cc1nc2c(c(-c3ccn[nH]3)n1)CC(C)N(C(=O)c1ccc(Cl)cc1F)C2 (stereo not drawn) [Example 87, (4-chloro-2-fluorophenyl)(2,6-dimethyl-4-(1H-pyrazol-5-yl)-5,6-dihydropyrido[3,4-d]pyrimidin-7(8H)-yl)methanone]
 | 7.87 |  |  | 8.10 | Cc1nc2c(c(-c3ccn[nH]3)n1)C[C@@H](C)N(C(=O)c1cccc(C(F)(F)F)c1C)C2 (single isomer, unassigned) [Example 78, (R*)-(2,6-dimethyl-4-(1H-pyrazol-5-yl)-5,6-dihydropyrido[3,4-d]pyrimidin-7(8H)-yl)(2-methyl-3-(trifluoromethyl)phenyl)methanone]
5.15 | 6.27 | -0.1 |  |  | Cc1nc2c(c(-c3ccn[nH]3)n1)CC(C)N(C(=O)c1cccc(C)c1C)C2 (stereo not drawn) [Example 132, (2,6-dimethyl-4-(1H-pyrazol-5-yl)-5,6-dihydropyrido[3,4-d]pyrimidin-7(8H)-yl)(2,3-dimethylphenyl)methanone]
